Data: patent US9108937B2 (Merck Sharp & Dohme Corp., priority 2010, dated 2015)

Biological target: T1, human mGluR2 (Homo sapiens, UniProt Q14416)
T1 construct: expressed in transfected cells
Assay: FLIPR Ca2+ mobilization assay, potentiation of glutamate response
Assay type: cell-based
Conditions: CHO dhfr- cells expressing human mGluR2 and Gα16; potentiation after EC20 glutamate (900 nM); read-out: Representative FLIPR EC50 Values: IC50
Description: Inhibition constants are determined as follows. The compounds of the present invention may be tested in a fluorescence laser imaging plate reader (FLIPR) based assay. This assay is a common functional assay to monitor Ca^2+ mobilization in whole cells expressing recombinant receptor coupled with a promiscuous G-protein. CHO dhfr− cells stably expressing recombinant human mGluR2 and Gα16 loaded with Fluo-4 AM (Invitrogen, Carlsbad Calif.) are treated with dose responses of compounds and the Ca^2+ response is monitored on a FLIPR384 (Molecular Devices, Sunnydale Calif.) for agonist activity. The potentiation response is monitored after a subsequent addition of an EC20 concentration of glutamate (900 nM). The maximum calcium response at each concentration of compound for agonist or potentiation are plotted as dose responses and the curves are fitted with a four parameters logistic equation giving EC50 and Hill coefficient using the iterative non linear curve fitting software program.

T1 sequence (Q14416 19-872): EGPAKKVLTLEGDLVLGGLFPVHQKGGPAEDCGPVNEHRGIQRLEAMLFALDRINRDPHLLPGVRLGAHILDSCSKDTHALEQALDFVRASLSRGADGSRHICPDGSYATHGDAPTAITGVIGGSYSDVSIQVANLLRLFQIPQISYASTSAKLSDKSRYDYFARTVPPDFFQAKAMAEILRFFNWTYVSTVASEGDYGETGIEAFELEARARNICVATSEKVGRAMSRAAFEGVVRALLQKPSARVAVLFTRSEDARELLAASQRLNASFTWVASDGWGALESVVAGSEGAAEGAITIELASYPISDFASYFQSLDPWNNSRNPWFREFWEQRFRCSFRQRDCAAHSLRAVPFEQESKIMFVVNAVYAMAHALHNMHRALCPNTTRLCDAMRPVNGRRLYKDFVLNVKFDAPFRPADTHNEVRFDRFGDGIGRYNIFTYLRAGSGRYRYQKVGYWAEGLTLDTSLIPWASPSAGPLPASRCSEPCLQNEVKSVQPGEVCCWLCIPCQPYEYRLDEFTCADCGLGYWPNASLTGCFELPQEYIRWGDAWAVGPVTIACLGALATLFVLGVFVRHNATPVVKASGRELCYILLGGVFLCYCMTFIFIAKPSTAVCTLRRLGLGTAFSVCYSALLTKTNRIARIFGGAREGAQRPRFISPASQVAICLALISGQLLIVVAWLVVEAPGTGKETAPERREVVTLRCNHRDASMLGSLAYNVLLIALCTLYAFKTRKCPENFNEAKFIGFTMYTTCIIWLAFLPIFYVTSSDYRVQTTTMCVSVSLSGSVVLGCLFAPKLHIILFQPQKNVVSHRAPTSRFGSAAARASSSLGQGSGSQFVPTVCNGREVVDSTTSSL

SMILES | EC50 [nM]
Cc1cccnc1-c1ccc2c(c1)N(C)S(=O)(=O)N2CC1CC1 [Compound 3-1, 1-(cyclopropylmethyl)-3-methyl-5-(3-methylpyridin-2-yl)-1,3-dihydro-2,1,3-benzothiadiazole 2,2-dioxide] | 490
CN1c2cc(-c3cccc(N4CCS(=O)(=O)CC4)c3)ccc2N(CC2CCC2)S1(=O)=O [Compound 8-1, 1-(cyclobutylmethyl)-5-[3-(1,1-dioxidothiomorpholin-4-yl)phenyl]-3-methyl-1,3-dihydro-2,1,3-benzothiadiazole 2,2-dioxide] | 110
CN1c2cc(-c3cc(C(C)(C)O)ccc3F)ccc2N(CC2CC2(F)F)S1(=O)=O (stereo not drawn) [Compound 17-2] | 22
CN1c2cc(-c3cccc(CNc4ncccc4C#N)c3)ccc2N(CC2CC2)S1(=O)=O [Compound 24-1, 2-({3-[1-(cyclopropylmethyl)-3-methyl-2,2-dioxido-1,3-dihydro-2,1,3-benzothiadiazol-5-yl]benzyl}amino)nicotinonitrile] | 130
CN1c2cc(-c3cccc(CN4CCN(S(C)(=O)=O)CC4)n3)ccc2N(CC2CC2(F)F)S1(=O)=O (stereo not drawn) [Compound 25-2] | 24
CN1c2nc(-c3ccc(N4CCN(S(C)(=O)=O)CC4)cc3)ccc2N(CC2CC2(F)F)S1(=O)=O (stereo not drawn) [Compound 32-2, 1-[(2,2-difluorocyclopropyl)methyl]-3-methyl-5-{4-[4-(methylsulfonyl)piperazin-1-yl]phenyl}-1,3-dihydro[1,2,5]thiadiazolo[3,4-b]pyridine 2,2-dioxide] | 140
Cc1ccc(C(C)(C)O)cc1-c1ccc2c(n1)N(C)S(=O)(=O)N2CC1CC1 [Compound 38-3, 2-{3-[1-(cyclopropylmethyl)-3-methyl-2,2-dioxido-1,3-dihydro [1,2,5]thiadiazolo[3,4-b]pyridin-5-yl]-4-methylphenyl}propan-2-ol] | 25
CC(=O)N1CCN(Cc2ccc(C)c(-c3ccc4c(n3)N(C)S(=O)(=O)N4CC3CC3(F)F)c2)CC1 (stereo not drawn) [Compound 39-2, 1-[4-(3-{1-[(2,2-difluorocyclopropyl)methyl]-3-methyl-2,2-dioxido-1,3-dihydro[1,2,5]thiadiazolo[3,4-b]pyridin-5-yl}-4-methylbenzyl)piperazin-1-yl]ethanone] | 11
CN1c2nc(-c3cccc(CN4CCS(=O)(=O)CC4)c3F)ccc2N(CC2CC2(F)F)S1(=O)=O (stereo not drawn) [Compound 42-3, 1-[(2,2-difluorocyclopropyl)methyl]-5-{3-[(1,1-dioxidothiomorpholin-4-yl)methyl]-2-fluorophenyl}-3-methyl-1,3-dihydro [1,2,5]thiadiazolo[3,4-b]pyridine 2,2-dioxide] | 9

More lines, in order of falling EC50, values ahead:

EC50 [nM] | SMILES
9 | CN1c2nc(-c3ccccc3C#N)ccc2N(CC(C)(C)C)S1(=O)=O [Compound 30-2, 2-[1-(2,2-dimethylpropyl)-3-methyl-2,2-dioxido-1,3-dihydro[1,2,5]thiadiazolo[3,4-b]pyridin-5-yl]benzonitrile]
8 | Cc1ccc(CN2CCN(C(=O)[C@@H](C)O)CC2)cc1-c1ccc2c(n1)N(C)S(=O)(=O)N2CC1CC1(F)F (stereo partly drawn) [Compound 43-3, (2R)-1-[4-(3-{1-[(2,2-difluorocyclopropyl)methyl]-3-methyl-2,2-dioxido-1,3-dihydro[1,2,5]thiadiazolo[3,4-b]pyridin-5-yl}-4-methylbenzyl)piperazin-1-yl]-2-hydroxypropan-1-one]
5 | CN1c2cc(-c3ccccc3C#N)ccc2N(CC2CC2)S1(=O)=O [Compound 1-5, 2-[1-(cyclopropylmethyl)-3-methyl-2,2-dioxido-1,3-dihydro-2,1,3-benzothiadiazol-5-yl]benzonitrile]
3 | CN1c2nc(-c3cc(Oc4ccnc(C#N)c4)ccc3C#N)ccc2N(CC2CC2(F)F)S1(=O)=O (stereo not drawn) [Compound 36-2, 4-(4-cyano-3-{1-[(2,2-difluorocyclopropyl)methyl]-3-methyl-2,2-dioxido-1,3-dihydro[1,2,5]thiadiazolo[3,4-b]pyridin-5-yl}phenoxy)pyridine-2-carbonitrile]
0.8 | CN1c2cc(-c3cc(CN4CCc5onc(O)c5C4)ccc3C#N)ccc2N(CC2CC2(F)F)S1(=O)=O (stereo not drawn) [Compound 20-1, 2-{1-[(2,2-difluorocyclopropyl)methyl]-3-methyl-2,2-dioxido-1,3-dihydro-2,1,3-benzothiadiazol-5-yl}-4-[(3-hydroxy-6,7-dihydroisoxazolo[4,5-c]pyridin-5(4H)-yl)methyl]benzonitrile]
0.5 | CN1c2cc(-c3cc(Oc4ccnc(C#N)c4)ccc3C#N)ccc2N(CC2CC2(F)F)S1(=O)=O (stereo not drawn) [Compound 12-4, 4-(4-cyano-3-{1-[(2,2-difluorocyclopropyl)methyl]-3-methyl-2,2-dioxido-1,3-dihydro-2,1,3-benzothiadiazol-5-yl}phenoxy) pyridine-2-carbonitrile]
